Results on nine compounds are retold here after US20220324835A1 (Nurix Therapeutics, Inc., priority 2018, published 2022).

Where only a bound is given, the exact number is not on record here.

Assay [1] has as its target T1, Cbl-b (Homo sapiens, UniProt Q13191). The assay is described as follows: Cbl-b inhibition assay (Cbl-b activity assay, FRET, Biological Example 1; 100 mM NaCl, 60 nM Src kinase). It counts as biochemical. Particulars: upper bound stated in text lists; read-out: IC50 values in the Cbl-b inhibition assay of Biological Example 1. The essentials:
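TR-FRET assay using N-terminal biotinylated Avi-tagged Cbl-b bound to streptavidin-terbium, Src kinase for Cbl-b phosphorylation, and UbcH5B irreversibly conjugated to Bodipy-Fluorescein-ubiquitin. Phosphorylated Cbl-b binds UbcH5B-Ub, bringing the fluorophores together; inhibition is read as loss of FRET signal.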

Assay [2] relates to T-cell. The assay is described as follows: IL-2 secretion from T-cells co-stimulated with anti-CD3 and anti-CD28 antibody (Biological Example 2). It counts as cell-based, human. Particulars: Homo sapiens, T-cell, primary human total T-cells, baseline = anti-CD3/anti-CD28 stimulated cells without inhibitor, read-out: IL-2 secretion, Anti-CD3/Anti-CD28 stimulation, fold change over baseline; for fold induction at 0.3 µM: 0.3 μM compound; for fold induction at 1 µM: 1 μM compound; for fold induction at 4 µM: 4 μM compound. The essentials: (§1)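 Values are fold-change over baseline: readings (IL-2 release, CD25 staining) from inhibitor-treated T-cells divided against untreated cells […]. No detailed procedure stated.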

Assay [3] relates to T-cell. The assay is described as follows: CD25 cell surface staining on T-cells co-stimulated with anti-CD3 and anti-CD28 antibody (Biological Example 2). In kind it is cell-based, human. The conditions noted are these: Homo sapiens, T-cell, primary human total T-cells, baseline = anti-CD3/anti-CD28 stimulated cells without inhibitor, read-out: CD25 staining, Anti-CD3/Anti-CD28 stimulation, fold change over baseline; for fold induction at 0.3 µM: 0.3 μM compound; for fold induction at 1 µM: 1 μM compound; for fold induction at 4 µM: 4 μM compound. The method, boiled down:
as §1

For assay [4], the target named is T1, Cbl-b. The assay is described as follows: Cbl-b activity assay (Cbl-b inhibition assay), TR-FRET of Cbl-b interaction with UbcH5B-Ub. In kind it is biochemical. Particulars: assay buffer with 100 mM NaCl, 60 nM Src kinase; read-out: Cbl-b activity IC50. The method, boiled down: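 Compound-treated Cbl-b was incubated 1.5 h with Src kinase (60 nM final; 30 nM for asterisked values, which also used 50 mM instead of 100 mM NaCl), 1 mM ATP and 5 mM MgCl2. Binding to fluorescent Ub-loaded UbcH5B (C85K mutant) was then read by TR-FRET after 1 h more.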
(Time-resolved FRET reads energy transfer from a long-lived donor to a nearby acceptor.)

In assay [5] the test system is T-cell. The assay is described as follows: IL-2 secretion from T-cells stimulated with anti-CD3 antibody alone (Biological Example 2). The conditions noted are these: primary human total T-cells, read-out: IL-2 secretion, Anti-CD3 stimulation, fold change over baseline; for fold induction at 1 µM: 1 μM compound; for fold induction at 8 µM: 8 μM compound. It counts as cell-based.

For assay [6], the system named is T-cell. The assay is described as follows: CD25 cell surface staining on T-cells stimulated with anti-CD3 antibody alone (Biological Example 2). It counts as cell-based. Particulars: primary human total T-cells, baseline = anti-CD3/anti-CD28 stimulated cells without inhibitor, read-out: CD25 staining, Anti-CD3 stimulation, fold change over baseline; for fold induction at 1 µM: 1 μM compound; for fold induction at 8 µM: 8 μM compound.

T1 sequence (Q13191 36-427): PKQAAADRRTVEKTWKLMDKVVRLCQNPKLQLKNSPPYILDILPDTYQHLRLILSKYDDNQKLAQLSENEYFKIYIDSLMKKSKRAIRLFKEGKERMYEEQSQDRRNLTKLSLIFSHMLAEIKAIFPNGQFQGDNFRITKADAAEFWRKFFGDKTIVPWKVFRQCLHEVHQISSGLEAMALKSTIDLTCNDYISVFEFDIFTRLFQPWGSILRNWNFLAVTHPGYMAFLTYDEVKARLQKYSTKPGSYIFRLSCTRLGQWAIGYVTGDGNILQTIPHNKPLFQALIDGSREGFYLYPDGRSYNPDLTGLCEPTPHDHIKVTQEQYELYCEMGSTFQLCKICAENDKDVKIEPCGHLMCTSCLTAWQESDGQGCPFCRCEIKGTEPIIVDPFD

As a reminder, the IC50 is the concentration at which inhibition is half-maximal. `Cn1cnnc1CC1(c2cccc(N3Cc4c(cc(CN5CCC(C)(F)C5)cc4C(F)(F)F)C3=O)c2)COC1` (centres unmarked) [Compound 435, 6-((3-fluoro-3-methylpyrrolidin-1-yl)methyl)-2-(3-(3-((4-methyl-4H-1,2,4-triazol-3-yl)methyl)oxetan-3-yl)phenyl)-4-(trifluoromethyl)isoindolin-1-one]: the figures for the IC50 on Cbl-b [1] and at Cbl-b [4] were ≤ 100 nM and < 100 nM, respectively. The fold induction at 0.3 µM was > 7.5 in the assay on T-cell [2] and 1.31 to 1.5 in the assay on T-cell [3]. Further, the fold induction at 1 µM in the assay on T-cell [2] is > 7.5; in the assay on T-cell [3], 1.31 to 1.5; in the assay on T-cell [5], > 0.201; with T-cell [6], > 1.

With `Cn1cnnc1CC1(c2cccc(N3Cc4c(cc(CO)cc4C(F)(F)F)C3=O)c2)COC1` [Compound 437, 6-(hydroxymethyl)-2-(3-(3-((4-methyl-4H-1,2,4-triazol-3-yl)methyl)oxetan-3-yl)phenyl)-4-(trifluoromethyl)isoindolin-1-one], the IC50 was ≤ 100 nM at Cbl-b [1] and < 100 nM on Cbl-b [4]. For the same compound, the fold induction at 0.3 µM was 2.51 to 5 in the assay with T-cell [2] and 1.01 to 1.3 in the assay with T-cell [3]. Further, the fold induction at 1 µM with T-cell [2] was 5 to 7.5; in the assay on T-cell [3], 1.31 to 1.5; with T-cell [5], 0.101 to 0.15; in the assay with T-cell [6], 0.601 to 0.8. Further, the fold induction at 4 µM in the assay with T-cell [2] was > 7.5; in the assay on T-cell [3], 1.51 to 1.75. Further, the fold induction at 8 µM fell in the range of 0.051 to 0.1 in the assay with T-cell [5] and 0.601 to 0.8 in the assay with T-cell [6].

Turning to `Cn1cnnc1C(F)(F)[C@](C)(F)c1cccc(N2Cc3c(cc(-c4cncc(F)c4)cc3C(F)(F)F)C2=O)c1` [Compound 440, (R)-6-(5-fluoropyridin-3-yl)-2-(3-(1,1,2-trifluoro-1-(4-methyl-4H-1,2,4-triazol-3-yl)propan-2-yl)phenyl)-4-(trifluoromethyl)isoindolin-1-one], the IC50 at Cbl-b [1] was ≤ 300 nM; at Cbl-b [4], 100 to 300 nM. Also, the fold induction at 0.3 µM in the assay on T-cell [2] is 1.01 to 2.5; with T-cell [3], < 1. In addition, the fold induction at 1 µM lay within 2.51 to 5 with T-cell [2], 1.01 to 1.3 in the assay on T-cell [3], 0.101 to 0.15 with T-cell [5] and 0.601 to 0.8 in the assay with T-cell [6]. For the same compound, the fold induction at 4 µM with T-cell [2] lay in the range of 2.51 to 5; in the assay on T-cell [3] it was 1.01 to 1.3. Also, the fold induction at 8 µM in the assay on T-cell [5] lay in the range of 0.151 to 0.2; in the assay with T-cell [6], 0.801 to 1.

Consider `CN1CCN(c2cc3c(c(C(F)(F)F)c2)CN(c2cccc([C@@](C)(F)C(F)(F)c4nncn4C)c2)C3=O)CC1` [Compound 441, (R)-6-(4-Methylpiperazin-1-yl)-2-(3-(1,1,2-trifluoro-1-(4-methyl-4H-1,2,4-triazol-3-yl)propan-2-yl)phenyl)-4-(trifluoromethyl)isoindolin-1-one], for which the IC50 is ≤ 300 nM at Cbl-b [1] and 100 to 300 nM at Cbl-b [4]. The fold induction at 0.3 µM is 1.01 to 2.5 in the assay with T-cell [2] and 1.01 to 1.3 in the assay on T-cell [3]. The fold induction at 1 µM in the assay on T-cell [2] lay in the range of 1.01 to 2.5; in the assay with T-cell [3], 1.01 to 1.3; in the assay on T-cell [5], 0.051 to 0.1; in the assay on T-cell [6] it was 0.601 to 0.8. In addition, the fold induction at 4 µM lay within 2.51 to 5 with T-cell [2] and 1.01 to 1.3 with T-cell [3]. Besides, the fold induction at 8 µM in the assay on T-cell [5] is 0.151 to 0.2; in the assay with T-cell [6], > 1.

For the compound `C[C@@H]1CN(C)CCN1c1cc2c(c(C(F)(F)F)c1)CN(c1cccc([C@@](C)(F)C(F)(F)c3nncn3C)c1)C2=O` [Compound 443, 6-((R)-2,4-Dimethylpiperazin-1-yl)-2-(3-((R)-1,1,2-trifluoro-1-(4-methyl-4H-1,2,4-triazol-3-yl)propan-2-yl)phenyl)-4-(trifluoromethyl)isoindolin-1-one], the IC50 is ≤ 100 nM at Cbl-b [1] and < 100 nM on Cbl-b [4]. Also, the figures for the fold induction at 0.3 µM with T-cell [2] and with T-cell [3] were 1.01 to 2.5 and 1.01 to 1.3, respectively. Moreover, the fold induction at 1 µM was 1.01 to 2.5 with T-cell [2], 1.01 to 1.3 in the assay with T-cell [3], < 0.05 with T-cell [5] and 0.801 to 1 in the assay with T-cell [6]. In addition, the fold induction at 4 µM in the assay on T-cell [2] lay in the range of 2.51 to 5; with T-cell [3] it was 1.31 to 1.5. For the same compound, the fold induction at 8 µM in the assay on T-cell [5] is 0.101 to 0.15; in the assay with T-cell [6], > 1.

For `C[C@H]1CN(C)CCN1c1cc2c(c(C(F)(F)F)c1)CN(c1cccc([C@@](C)(F)C(F)(F)c3nncn3C)c1)C2=O` [Compound 444, 6-((S)-2,4-Dimethylpiperazin-1-yl)-2-(3-((R)-1,1,2-trifluoro-1-(4-methyl-4H-1,2,4-triazol-3-yl)propan-2-yl)phenyl)-4-(trifluoromethyl)isoindolin-1-one], the IC50 was ≤ 100 nM at Cbl-b [1] and < 100 nM at Cbl-b [4]. Besides, the results for the fold induction at 0.3 µM in the assay on T-cell [2] and in the assay with T-cell [3] were 1.01 to 2.5 and 1.01 to 1.3, respectively. Moreover, the fold induction at 1 µM in the assay on T-cell [2] is 5 to 7.5; with T-cell [3], 1.01 to 1.3; with T-cell [5], 0.101 to 0.15; in the assay with T-cell [6], > 1. Also, the fold induction at 4 µM with T-cell [2] is > 7.5; in the assay on T-cell [3], 1.31 to 1.5. Also, the figures for the fold induction at 8 µM in the assay on T-cell [5] and with T-cell [6] were > 0.201 and > 1, respectively.

As to `CN1CC2CCC(C1)N2c1cc2c(c(C(F)(F)F)c1)CN(c1cccc([C@@](C)(F)C(F)(F)c3nncn3C)c1)C2=O` [Compound 445, 6-(3-Methyl-3,8-diazabicyclo[3.2.1]octan-8-yl)-2-(3-((R)-1,1,2-trifluoro-1-(4-methyl-4H-1,2,4-triazol-3-yl)propan-2-yl)phenyl)-4-(trifluoromethyl)isoindolin-1-one], the half-inhibitory concentration (IC50) is ≤ 100 nM at Cbl-b [1] and < 100 nM at Cbl-b [4]. For the same compound, the fold induction at 0.3 µM lay within 5 to 7.5 in the assay on T-cell [2] and 1.31 to 1.5 with T-cell [3]. The fold induction at 1 µM in the assay on T-cell [2] was > 7.5; with T-cell [3] it was 1.51 to 1.75; with T-cell [5], > 0.201; in the assay on T-cell [6] it was > 1. Also, the values for the fold induction at 4 µM in the assay with T-cell [2] and in the assay with T-cell [3] were > 7.5 and 1.51 to 1.75, respectively. For the same compound, the fold induction at 8 µM was > 0.201 in the assay on T-cell [5] and > 1 in the assay with T-cell [6].

With `Cn1cnnc1C(F)(F)[C@](C)(F)c1cccc(N2Cc3c(cc(CN4CC(C(F)F)C4)cc3C(F)(F)F)C2=O)c1` [Compound 453, (R)-6-((3-(difluoromethyl)azetidin-1-yl)methyl)-2-(3-(1,1,2-trifluoro-1-(4-methyl-4H-1,2,4-triazol-3-yl)propan-2-yl)phenyl)-4-(trifluoromethyl)isoindolin-1-one], the IC50 was ≤ 100 nM on Cbl-b [1] and < 100 nM on Cbl-b [4]. The fold induction at 0.3 µM in the assay with T-cell [2] was 5 to 7.5; in the assay on T-cell [3], 1.31 to 1.5. The fold induction at 1 µM with T-cell [2] is > 7.5; with T-cell [3], 1.31 to 1.5; in the assay with T-cell [5], > 0.201; in the assay with T-cell [6], > 1. For the same compound, the fold induction at 4 µM was > 7.5 in the assay with T-cell [2] and 1.31 to 1.5 in the assay with T-cell [3]. For the same compound, the fold induction at 8 µM was 0.151 to 0.2 in the assay with T-cell [5] and > 1 in the assay on T-cell [6].

In the case of `Cn1cnnc1C(F)(F)[C@](C)(F)c1cccc(N2Cc3c(cc(CN4CC[C@H](C#N)C4)cc3C(F)(F)F)C2=O)c1` [Compound 454, (S)-1-((3-oxo-2-(3-((R)-1,1,2-trifluoro-1-(4-methyl-4H-1,2,4-triazol-3-yl)propan-2-yl)phenyl)-7-(trifluoromethyl)isoindolin-5-yl)methyl)pyrrolidine-3-carbonitrile], the figures for the IC50 at Cbl-b [1] and at Cbl-b [4] were ≤ 100 nM and < 100 nM, respectively. In addition, the fold induction at 0.3 µM in the assay with T-cell [2] lay in the range of 5 to 7.5; in the assay on T-cell [3], 1.01 to 1.3. The fold induction at 1 µM with T-cell [2] is > 7.5; with T-cell [3], 1.31 to 1.5; with T-cell [5] it was > 0.201; with T-cell [6], > 1. The values for the fold induction at 4 µM with T-cell [2] and in the assay on T-cell [3] were > 7.5 and 1.31 to 1.5, respectively. For the same compound, the fold induction at 8 µM with T-cell [5] was > 0.201; in the assay on T-cell [6], > 1.
